According to patent US8883781B2, “Thienopyrimidines useful as modulators of ion channels” (Vertex Pharmaceuticals Incorporated, priority 2006, dated 2014):
Read-outs that look alike come from different tables or passages of the source.

What was measured:
[1] = target: NaV1.1 (Homo sapiens, UniProt P35498); conditions: read-out: TTX IC50; cited from earlier work
[2] = target: NaV1.9 (Homo sapiens, UniProt Q9UI33); conditions: read-out: TTX IC50; cited from earlier work
[3] = target: T1, NaV1.8 (Homo sapiens, UniProt Q9Y5Y9); conditions: read-out: TTX IC50; cited from earlier work
[4] = target: NaV1.3 (Homo sapiens, UniProt Q9NY46); conditions: read-out: TTX IC50; cited from earlier work
[5] = target: NaV1.2 (Homo sapiens, UniProt Q99250); conditions: read-out: TTX IC50; cited from earlier work
[6] = target: NaV1.6 (Homo sapiens, UniProt Q9UQD0); conditions: read-out: TTX IC50; cited from earlier work
[7] = target: T1, NaV1.8; test: Activity against NaV 1.8 channel (Table 4); assay type: cell-based
Experimental: Compounds of the invention are useful as antagonists of voltage-gated sodium ion channels. Antagonist properties of test compounds were assessed as follows. Cells expressing the NaV of interest were placed into microtiter plates. After an incubation period, the cells were stained with fluorescent dyes sensitive to the transmembrane potential. The test compounds were added to the microtiter plate. The cells were stimulated with either a chemical or electrical means to evoke a NaV dependent membrane potential change from unblocked channels, which was detected and measured with trans-membrane potential-sensitive dyes. Antagonists were detected as a decreased membrane potential response to the stimulus. The optical membrane potential assay utilized voltage-sensitive FRET sensors described by Gonzalez and Tsien (See, Gonzalez, J. E. and R. Y. Tsien (1995) “Voltage sensing by fluorescence resonance energy transfer in single cells” Biophys J 69(4):1272-80, and Gonzalez, J. E. and R. Y. Tsien (1997) “Improved indicators of cell membrane potential that use fluorescence resonance energy transfer” Chem Biol 4(4): 269-77) in combination with instrumentation for measuring fluorescence change such as the Voltage/Ion Probe Reader (VIPR®) (See, Gonzalez, J. E., K. Oades, et al. (1999) “Cell-based assays and instrumentation for screening ion-channel targets” Drug Discov Today 4(9): 431-439).
24 hours before the assay on VIPR, CHO cells endogenously expressing a NaV 1.2 type voltage-gated NaV are seeded in 96-well poly-lysine coated plates at 60,000 cells per well. Other subtypes are performed in an analogous mode in a cell line expressing the NaV of interest.
The following is an example of how NaV1.3 inhibition activity is measured using the optical membrane potential method#2. Other subtypes are performed in an analogous mode in a cell line expressing the NaV of interest.
HEK293 cells stably expressing NaV1.3 are plated into 96-well microtiter plates. After an appropriate incubation period, the cells are stained with the voltage sensitive dyes CC2-DMPE/DiSBAC2(3) as follows.
Patch clamp electrophysiology was used to assess the efficacy and selectivity of sodium channel blockers in dorsal root ganglion neurons. Rat neurons were isolated from the dorsal root ganglions and maintained in culture for 2 to 10 days in the presence of NGF (50 ng/ml) (culture media consisted of NeurobasalA supplemented with B27, glutamine and antibiotics). Small diameter neurons (nociceptors, 8-12 μm in diameter) have been visually identified and probed with fine tip glass electrodes connected to an amplifier (Axon Instruments). The “voltage clamp” mode has been used to assess the compound's IC50 holding the cells at −60 mV. In addition, the “current clamp” mode has been employed to test the efficacy of the compounds in blocking action potential generation in response to current injections. The results of these experiments have contributed to the definition of the efficacy profile of the compounds.
TTX-resistant sodium currents were recorded from DRG somata using the whole-cell variation of the patch clamp technique. Recordings were made at room temperature (˜22° C.) with thick walled borosilicate glass electrodes (WPI; resistance 3-4 MΩ) using an Axopatch 200B amplifier (Axon Instruments). After establishing the whole-cell configuration, approximately 15 minutes were allowed for the pipette solution to equilibrate within the cell before beginning recording. Currents were lowpass filtered between 2-5 kHz and digitally sampled at 10 kHz. Series resistance was compensated 60-70% and was monitored continuously throughout the experiment. The liquid junction potential (−7 mV) between the intracellular pipette solution and the external recording solution was not accounted for in the data analysis. Test solutions were applied to the cells with a gravity driven fast perfusion system (SF-77; Warner Instruments). […]

[8] = human, in vivo; cited from earlier work

Chain of NaV1.3 (Q9NY46 whole entry, looked up): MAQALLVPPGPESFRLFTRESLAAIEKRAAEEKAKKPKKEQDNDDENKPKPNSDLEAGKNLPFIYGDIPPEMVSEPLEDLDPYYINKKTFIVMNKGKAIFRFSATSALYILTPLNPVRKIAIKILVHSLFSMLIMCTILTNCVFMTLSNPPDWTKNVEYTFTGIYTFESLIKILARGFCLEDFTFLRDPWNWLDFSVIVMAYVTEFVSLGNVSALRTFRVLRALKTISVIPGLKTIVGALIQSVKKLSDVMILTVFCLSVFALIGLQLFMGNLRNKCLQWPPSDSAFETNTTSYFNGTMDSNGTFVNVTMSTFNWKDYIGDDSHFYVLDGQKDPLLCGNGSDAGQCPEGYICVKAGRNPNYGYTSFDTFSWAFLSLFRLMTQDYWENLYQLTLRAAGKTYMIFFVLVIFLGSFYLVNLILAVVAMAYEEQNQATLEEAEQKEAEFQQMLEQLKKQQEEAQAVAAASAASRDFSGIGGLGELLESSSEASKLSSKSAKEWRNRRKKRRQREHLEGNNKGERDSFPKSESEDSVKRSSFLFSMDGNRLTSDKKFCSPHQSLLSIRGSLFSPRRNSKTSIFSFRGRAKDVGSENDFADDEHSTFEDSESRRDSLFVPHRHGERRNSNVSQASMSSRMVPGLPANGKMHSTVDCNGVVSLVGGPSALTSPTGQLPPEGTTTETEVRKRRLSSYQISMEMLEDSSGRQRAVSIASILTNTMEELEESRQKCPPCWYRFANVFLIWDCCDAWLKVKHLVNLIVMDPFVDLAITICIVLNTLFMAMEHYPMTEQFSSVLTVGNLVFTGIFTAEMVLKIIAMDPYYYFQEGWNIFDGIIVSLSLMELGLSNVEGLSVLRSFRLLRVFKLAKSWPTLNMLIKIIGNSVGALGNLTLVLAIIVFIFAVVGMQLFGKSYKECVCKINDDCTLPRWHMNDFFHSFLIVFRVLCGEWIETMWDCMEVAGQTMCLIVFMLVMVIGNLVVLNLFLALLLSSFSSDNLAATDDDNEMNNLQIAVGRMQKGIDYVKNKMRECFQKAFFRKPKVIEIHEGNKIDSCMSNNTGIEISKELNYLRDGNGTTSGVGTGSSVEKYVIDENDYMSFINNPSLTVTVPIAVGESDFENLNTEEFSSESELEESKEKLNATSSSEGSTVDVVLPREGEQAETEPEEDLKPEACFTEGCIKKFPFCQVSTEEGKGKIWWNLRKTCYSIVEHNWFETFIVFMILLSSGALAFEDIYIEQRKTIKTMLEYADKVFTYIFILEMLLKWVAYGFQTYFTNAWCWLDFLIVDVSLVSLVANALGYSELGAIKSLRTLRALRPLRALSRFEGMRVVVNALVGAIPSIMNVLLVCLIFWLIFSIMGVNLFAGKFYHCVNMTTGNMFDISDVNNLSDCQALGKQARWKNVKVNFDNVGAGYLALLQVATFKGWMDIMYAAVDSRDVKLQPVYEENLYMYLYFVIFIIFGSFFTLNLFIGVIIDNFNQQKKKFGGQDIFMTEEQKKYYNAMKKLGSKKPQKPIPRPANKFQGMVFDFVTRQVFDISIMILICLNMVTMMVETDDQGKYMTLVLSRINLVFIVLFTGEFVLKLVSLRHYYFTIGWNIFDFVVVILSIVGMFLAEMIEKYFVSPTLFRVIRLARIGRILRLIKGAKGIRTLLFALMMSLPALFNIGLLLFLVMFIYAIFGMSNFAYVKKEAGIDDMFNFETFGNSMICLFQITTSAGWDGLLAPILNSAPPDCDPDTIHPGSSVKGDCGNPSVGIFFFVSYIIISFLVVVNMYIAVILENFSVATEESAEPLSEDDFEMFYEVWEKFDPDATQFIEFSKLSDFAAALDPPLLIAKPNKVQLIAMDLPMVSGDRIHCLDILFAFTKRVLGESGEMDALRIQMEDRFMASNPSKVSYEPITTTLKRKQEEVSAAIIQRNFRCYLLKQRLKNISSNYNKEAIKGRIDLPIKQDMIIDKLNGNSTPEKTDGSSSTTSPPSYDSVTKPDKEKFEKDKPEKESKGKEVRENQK
Chain of NaV1.6 (Q9UQD0 whole entry, looked up): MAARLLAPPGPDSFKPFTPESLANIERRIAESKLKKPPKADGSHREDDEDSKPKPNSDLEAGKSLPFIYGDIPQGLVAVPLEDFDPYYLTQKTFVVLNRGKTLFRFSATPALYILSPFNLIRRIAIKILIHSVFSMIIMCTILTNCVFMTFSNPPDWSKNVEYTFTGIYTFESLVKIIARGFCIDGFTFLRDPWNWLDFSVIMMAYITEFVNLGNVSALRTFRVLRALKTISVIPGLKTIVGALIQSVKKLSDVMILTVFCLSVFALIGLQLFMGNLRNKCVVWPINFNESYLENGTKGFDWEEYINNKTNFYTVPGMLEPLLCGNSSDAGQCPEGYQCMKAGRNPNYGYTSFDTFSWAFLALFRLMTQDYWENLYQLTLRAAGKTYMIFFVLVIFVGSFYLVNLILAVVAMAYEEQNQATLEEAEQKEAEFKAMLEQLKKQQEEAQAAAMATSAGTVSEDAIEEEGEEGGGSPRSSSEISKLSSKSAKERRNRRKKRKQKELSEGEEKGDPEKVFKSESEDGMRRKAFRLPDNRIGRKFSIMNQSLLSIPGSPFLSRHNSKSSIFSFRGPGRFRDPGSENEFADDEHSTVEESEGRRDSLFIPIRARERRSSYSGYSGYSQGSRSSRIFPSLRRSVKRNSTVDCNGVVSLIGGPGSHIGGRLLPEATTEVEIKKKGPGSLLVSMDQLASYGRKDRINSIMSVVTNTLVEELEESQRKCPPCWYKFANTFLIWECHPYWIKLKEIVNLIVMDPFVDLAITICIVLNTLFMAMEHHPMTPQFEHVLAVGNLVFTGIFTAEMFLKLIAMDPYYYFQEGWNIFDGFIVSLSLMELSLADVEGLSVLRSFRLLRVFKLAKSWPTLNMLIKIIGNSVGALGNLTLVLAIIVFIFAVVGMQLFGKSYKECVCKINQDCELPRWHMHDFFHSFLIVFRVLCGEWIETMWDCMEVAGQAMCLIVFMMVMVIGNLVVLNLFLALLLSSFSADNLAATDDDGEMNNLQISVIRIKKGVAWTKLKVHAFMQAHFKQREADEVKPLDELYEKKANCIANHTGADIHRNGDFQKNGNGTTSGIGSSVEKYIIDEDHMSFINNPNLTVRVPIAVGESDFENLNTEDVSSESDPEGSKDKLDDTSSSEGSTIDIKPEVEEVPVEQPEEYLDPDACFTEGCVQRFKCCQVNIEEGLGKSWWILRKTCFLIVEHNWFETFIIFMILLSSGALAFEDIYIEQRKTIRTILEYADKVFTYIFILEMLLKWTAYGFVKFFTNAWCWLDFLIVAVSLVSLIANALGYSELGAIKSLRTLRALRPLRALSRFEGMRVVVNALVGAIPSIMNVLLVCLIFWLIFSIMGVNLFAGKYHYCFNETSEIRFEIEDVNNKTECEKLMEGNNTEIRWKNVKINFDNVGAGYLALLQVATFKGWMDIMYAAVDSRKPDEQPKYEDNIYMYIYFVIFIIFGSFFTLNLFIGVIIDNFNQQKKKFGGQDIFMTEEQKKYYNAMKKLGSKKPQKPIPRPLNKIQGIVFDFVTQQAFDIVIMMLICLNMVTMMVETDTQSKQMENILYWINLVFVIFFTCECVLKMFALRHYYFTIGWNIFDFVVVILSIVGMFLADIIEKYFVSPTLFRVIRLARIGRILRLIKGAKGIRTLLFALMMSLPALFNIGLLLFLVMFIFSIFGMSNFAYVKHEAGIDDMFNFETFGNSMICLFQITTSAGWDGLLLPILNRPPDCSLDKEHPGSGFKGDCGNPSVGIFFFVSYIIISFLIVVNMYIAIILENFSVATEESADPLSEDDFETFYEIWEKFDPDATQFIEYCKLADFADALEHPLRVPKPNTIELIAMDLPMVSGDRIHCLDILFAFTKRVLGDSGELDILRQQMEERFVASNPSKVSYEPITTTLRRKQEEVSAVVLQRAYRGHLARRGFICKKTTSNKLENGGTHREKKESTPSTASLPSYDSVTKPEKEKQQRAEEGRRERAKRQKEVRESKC

NC1=N[C@H](O)[C@H]2[C@H]3O[C@]4(O)O[C@@H]([C@@H](O)[C@@]2(N1)[C@@H]4O)[C@]3(O)CO [TTX, tetrodotoxin]
IC50 [1]: 0.01 µM
IC50 [2]: 1 µM
IC50 [3]: > 50 µM
IC50 [4]: 0.015 µM
IC50 [5]: 0.01 µM
IC50 [6]: 0.006 µM

Cc1cc(C)c2c(n1)sc1c(N3CCOCC3)nc(-c3ccccc3O)nc12 [Compound 2]
IC50 [7]: > 20 µM

Cc1csc2nc(-c3ccccc3O)nc(N3CCC(NC(=O)OCC(C)C)CC3)c12 [Compound 6, Isobutyl 1-(2-(2-hydroxyphenyl)-5-methylthieno[2,3-d]pyrimidin-4-yl)piperidin-4-ylcarbamate]
IC50 [7]: > 20 µM

CC(C)COC(=O)N1CCN(c2nc(-c3ccccc3O)nc3ccsc23)CC1 [Compound 7, Isobutyl 4-(2-(2-hydroxyphenyl)thieno[3,2-d]pyrimidin-4-yl)piperazine-1-carboxylate]
IC50 [7]: < 5 µM

Cc1csc2nc(-c3ccccc3O)nc(N3CCN(C(=O)OCC(C)C)CC3)c12 [Compound 4, Isobutyl 4-(2-(2-hydroxyphenyl)-5-methylthieno[2,3-d]pyrimidin-4-yl)piperazine-1-carboxylate]
IC50 [7]: > 20 µM

CC(C)COC(=O)NC1CCN(c2nc(-c3ccccc3O)nc3ccsc23)CC1 [Compound 8, Isobutyl 1-(2-(2-hydroxyphenyl)thieno[3,2-d]pyrimidin-4-yl)piperidin-4-ylcarbamate]
IC50 [7]: < 5 µM

Oc1ccccc1-c1nc(N2CCOCC2)c2sc(-c3ccc(F)cc3)cc2n1 [Compound 1, 2-(6-(4-Fluorophenyl)-4-morpholinothieno[3,2-d]pyrimidin-2-yl)phenol]
IC50 [7]: > 20 µM

CCCCS(=O)(=O)N1CCN(c2nc(-c3ccccc3O)nc3scc(C)c23)CC1 [Compound 5, 2-(4-(4-(butylsulfonyl)piperazin-1-yl)-5-methylthieno[2,3-d]pyrimidin-2-yl)phenol]
IC50 [7]: > 20 µM

NCC1(CC(=O)O)CCCCC1 [Gabapentin]
patients in whom it works [8]: 60%
